In patent publication US20260234157A1, “COMPOUND AND METHOD FOR TARGETED DEGRADATION OF ANDROGEN RECEPTOR” (Gan & Lee Pharmaceuticals Co., Ltd., priority 2023, published 2026) one finds IC50 data, which are given here for 6 compounds.

pIC50: −log10 of the molar value.

The first assay has as its system VCaP cells. As to the kind of experiment: Inhibition of proliferation of VCaP cells (WST-8). In kind it is cell-based. The settings on record: Homo sapiens, VCaP, 168 h, read-out: IC50 for inhibiting the proliferation of VCaP cells. The protocol:
The inhibitory activity of the compounds disclosed in the present disclosure on the proliferation of VCaP cells
On the first day of the experiment, […] were inoculated in 96 well plates at a density of 15000 cells per well using DMEM medium containing 10% fetal bovine serum, with 100 μL of cell suspension per well. The cells were cultured in a cell culture incubator with 5% CO2 at 37° C. overnight. […] On the ninth day, 96 well plates were taken out, and 20 μL of WST-8 (Beytime, C0040) reagent was added to each well.
As to `CC1(C)C(=O)N(c2ccc(C#N)c(C(F)(F)F)c2)C(=S)N1c1ccc(C(=O)N2CC(N3CCC4(CCc5cc6c(cc5O4)C(=O)N(C4CCC(=O)NC4=O)C6)CC3)C2)c(F)c1` (stereo not drawn) [Compound 105], the pIC50 was 5.53. As for `CC1(C)C(=O)N(c2ccc(C#N)c(C(F)(F)F)c2)C(=S)N1c1ccc(C(=O)N2CC3(CC(N4CCC5(CC4)COc4cc6c(cc45)C(=O)N(C4CCC(=O)NC4=O)C6=O)C3)C2)c(F)c1` (stereo not drawn) [Compound 92], the pIC50 was 5.39. As to `CC1(C)C(=O)N(c2ccc(C#N)c(C(F)(F)F)c2)C(=S)N1c1ccc(C(=O)N2CCC(N3CCC4(CCc5cc6c(cc5O4)C(=O)N(C4CCC(=O)NC4=O)C6=O)CC3)CC2)c(F)c1` (stereo not drawn) [Compound 101], the pIC50 is 5.43. `CC1(C)C(=O)N(c2ccc(C#N)c(C(F)(F)F)c2)C(=S)N1c1ccc(C(=O)N2CC(N3CCC4(CCc5cc6c(cc5O4)C(=O)N(C4CCC(=O)NC4=O)C6=O)CC3)C2)c(F)c1` (stereo not drawn) [Compound 102]: the pIC50 is 5.41. Take `CC1(C)C(=O)N(c2ccc(C#N)c(C(F)(F)F)c2)C(=S)N1c1ccc(C(=O)N2CCC(CN3CCC4(CCc5cc6c(cc5O4)C(=O)N(C4CCC(=O)NC4=O)C6=O)CC3)CC2)c(F)c1` (stereo not drawn) [Compound 99]: the pIC50 was 5.42.

Staying with this assay, now noted: Homo sapiens; VCaP cells, 168 hours, WST-8 absorbance at 450 nm; read-out: IC50 for inhibiting the proliferation of VCaP cells.
On to `CC1(C)C(=O)N(c2ccc(C#N)c(C(F)(F)F)c2)C(=S)N1c1ccc(C(=O)N2CCC3(CC2)CC(N2CCC4(CCc5cc6c(cc5O4)C(=O)N(C4CCC(=O)NC4=O)C6=O)CC2)C3)c(F)c1` (stereo not drawn) [Compound 103], for which the pIC50 is 5.56.
